For one assay, the system named is skin graft rejection. The experiment in a line: Skin graft transplantation model for HVGD. In kind it is in vivo, mice. As to conditions: B10.D2 → BALB/c, FK506 300 μg/day ip, 7 injections from day −2. The method, then: Recipient mice were dorsally transplanted with circular pieces of donor skin. Mice were inspected daily. Grafts were considered rejected when no viable donor epidermis remained. The results are expressed in mean survival time (MST). P values were obtained by analysis of variance (ANOVA).
[…] The first Cop 1 treatment on day −7 was injected sc in ICFA as a depot dose. Control mice were treated daily with PBS alone and PBS with ICFA on day −7 before transplantation.
Grafts were inspected daily. Rejection was considered positive when no viable donor epidermis remained. […]

The test system of assay [1] is function of transplanted thyroids. The experiment in a line: Thyroid graft assay for HVGD (125I absorption of thyroid transplanted in kidney capsule). As to conditions: B10.D2 → BALB/c, FK506 300 μg. In kind it is in vivo, mice. The method, then:
In this transplantation model for HVGD, thyroid glands from donor mice were transplanted in the kidney's capsules of recipient mice. One week later the transplanted mice were injected with ^125I, and the radioactivity of each kidney (the recipient or the untransplanted kidney) was measured after 20 hours. Δcpm was calculated by subtracting the ^125I absorbance of the untransplanted kidneys from the ^125I absorbance of the recipient kidneys in the same treatment. The mean function index (MFI) for treatment was calculated by dividing the mean Δcpm for the tested (Copolymer 1) treatment by the mean Δcpm for the PBS treatment. P values were obtained by the t test. This assay indicates objectively and quantitatively not only the graft survival, but also the function (iodine absorbance) of the transplanted thyroid tissue (Isakov et al., 1979).
The transplanted mice were treated daily with Copolymer 1 600 μg/day (300 μg ip+300 μg sc) in PBS solution, starting 7 days before transplantation. The first Cop 1 treatment on day −7 was injected sc in ICFA as a depot dose. Control mice were treated daily with PBS alone and PBS with ICFA on day −7 before transplantation.
To test the effect of Copolymer 1 treatment on the function of transplanted thyroids in the B10.D2→BALB/c model, thyroid glands from donors B10.D2 were transplanted in the kidney's capsules of BALB/c mice. After one week the transplanted mice were injected with ^125I, and the radioactivity of each kidney was measured 20 hours later. cpm was calculated by subtracting the ^125I absorbance of the untransplanted kidneys from the ^125I absorbance of the recipient kidneys in the same treatment. The mean function index (MFI) for each treatment was calculated by dividing the mean ^125I absorbance of (transplanted kidney-untransplanted kidney) in the tested treatment by the mean ^125I absorbance of (transplanted kidney-untransplanted kidney) in the PBS treatment, as follows: […]

Assay [2] concerns proliferation of B10.PL (H-2u) responder cells to PL/J stimulator cells. Kind of assay: Mixed lymphocyte reaction (MLR) across minor histocompatibility barriers. As to conditions: 20 μg/well, Cop 1 Batch I, 1:1 ratio of responder to stimulator cells. In kind it is cell-based, mice. The method, then: (§1) Responder cells for MLR reactions across major histocompatibility barriers were harvested from spleen of non-immunized mice while responder cells for MLR across minor histocompatibility barriers were harvested from mice which were preimmunized with irradiated (30 Gy) 50×10^6 stimulator spleen cells 21 days before. Responder cells (5×10^5 spleen cells per well) were tested for their proliferative response by plating with different amounts (2.5 to 10×10^5) of irradiated stimulator cells, in presence or absence of various peptide inhibitors (10–100 μg per well). Cultures were set up in 200 μl media containing 10% FCS in flat-bottom microtiter plates. After 4 days of incubation, cultures were pulsed with 1 μCi of [^3H]thymidine for an additional 16 hours. Results are represented as mean counts per minute (cpm) thymidine incorporation from triplicate cultures.
(§2) To investigate the feasibility of inhibition of MLR by Copolymer 1, an MLR system was developed in which Copolymer 1 was tested for its ability to inhibit the proliferation of B10.PL (H-2^u) responder cells to stimulator cells of either the same (PL/J) or different (BALB/c) H-2 haplotype. For comparison, the inhibitory MBP Ac 1-11[4A], MBP 35-47, a combination of Ac 1-1[4A]+MBP 35-47, MBP 89-101 and KM-core peptides, described in Schlegel et al. (1994), were used in the MLR experiments.
(§3) The inhibition obtained by Copolymer 1 was similar (in response to minor histocompatibility antigen) or even higher (in response to major histocompatibility antigen) than the inhibition obtained with the combination of the two synthetic peptides Ac 1-11[4A] and MBP 35-47, which specifically bind to the class II molecules I-A^u and the I-E^u, respectively. The molar efficiency of Copolymer 1 of M.W. 6000 is even higher since the molecular weight of the synthetic peptides is 4–5 fold lower.

Assay [3] has as its system proliferation of B10.PL (H-2u) responder cells to BALB/c stimulator cells. Kind of assay: Mixed lymphocyte reaction (MLR) across major histocompatibility barriers, B10.PL vs BALB/c. In kind it is cell-based, mice. Particulars: 20 μg/well, Cop 1 Batch I, 1:1 ratio of responder to stimulator cells. As for the experimental part: as §1, §2, §3
Assay [4] concerns T cell proliferation in MHC-disparate mixed lymphocyte cultures. Kind of assay: Mixed lymphocyte cultures across major histocompatibility barriers, six MHC-disparate strain combinations. In kind it is cell-based, mice. Particulars: 10–100 μg/well, all concentrations tested. As for the experimental part: as §1
The subject of assay [5] is GVHD in B10.D2 → BALB/c recipients. Kind of assay: Murine lethal GVHD model after bone marrow transplantation, B10.D2/nSnJ→BALB/c. In kind it is in vivo, mice. Particulars: for overall incidence of GVHD: 600 μg per injection (ip + sc), Cop 1 Batch I. The method, then: The murine GVHD model of B10.D2/nSnJ→BALB/c mice (both H-2^d) across minor histocompatibility barriers, was selected since it is similar to the MHC matched bone marrow transplantation in humans. For the induction of GVHD, 10×10^6 bone marrow and 100×10^6 spleen cells from B10.D2 mice were injected into lethally irradiated (8.0 Gy) BALB/c recipients. […] Recipient mice were 12–13 weeks at the time of transplantation.
Based on previous studies with Cop 1 in EAE (Sela et al., 1990; Teitelbaum et al., 1971; Teitelbaum et al., 1973) and class II-binding competitor peptides in GVHD (Schlegel et al., 1994), the dosage of 600 μg per injection was selected, half of which was administered intraperitoneally (ip), whereas the other half was given subcutaneously (sc). Treatment of BALB/c recipient mice was initiated on day −1, followed by daily injections for the first five weeks starting on day 0 after transplantation. The frequency of injections was tapered to three times per week for the subsequent two weeks and to two times per week for another two weeks and then discontinued. Throughout the experiment, copolymers and controls were administered once a week with incomplete Freund's adjuvant (IFA) ip as a depot dose (Schlegel et al., 1994). Treatment was discontinued 9 weeks after transplantation.
Mice were followed up daily for 140 days after bone marrow transplantation for signs of GVHD. Disease severity was assessed by mortality, loss of body weight, and by the extent of macroscopic skin involvement scored on a cumulative scale (from min O— max 8): head 1, neck 1, back (1/3, 2/3, 3/3) 1–3, front (1/3, 2/3, 3/3) 1–3. Skin biopsies were examined as previously described (Schlegel et al., 1994).
(ii) Effect of Copolymer 1 Treatment on the Incidence, Onset and Severity of GVHD. […] For the first five weeks after transplant mice were injected daily as outlined in Materials and Methods, followed by a tapering schedule over an additional four weeks.
(iii) Effect of Copolymer 1 treatment on survival. […]

These results are taken from patent US7053043B1, “Pharmaceutical compositions comprising synthetic peptide copolymers and methods for preventing and treating GVHD and HVGD” (Yeda Research and Development Co.Ltd., priority 1999, dated 2006).

For `C=CC[C@@H]1/C=C(\C)C[C@H](C)C[C@H](OC)[C@H]2O[C@@](O)(C(=O)C(=O)N3CCCC[C@H]3C(=O)O[C@H](/C(C)=C/[C@@H]3CC[C@@H](O)[C@H](OC)C3)[C@H](C)[C@@H](O)CC1=O)[C@H](C)C[C@@H]2OC` [FK506], the “MST ± SD (Mean Survival Time of skin graft)” value with skin graft rejection turned out to be 21.2 ± 4.3 days. Further, in the assay with skin graft rejection (listed as FK 506), the “MST ± SD (Mean Survival Time of skin graft)” value turned out to be 21.2 days. In addition, in assay [1], the “Mean 125I Absorption, Transplanted Kidney (cpm)” value was 3117 cpm; the “Mean 125I Absorption, Untransplanted Kidney (cpm)” value is recorded as 693 cpm; the “cpm (transplanted minus untransplanted kidney)” value is reported as 2424 cpm. In addition, the “MFI (mean function index)” value in assay [1] (folds over PBS treatment) was 3.1.
“MBP 89-101: peptide VHFFKNIVTPRTP (SEQ ID NO:4) of myelin basic protein”: the “inhibition of MLR” value in assay [2] and in assay [3] was “did not induce any significant effect” each time.
For “KM-core: KMKMVAAHAKMKM (SEQ ID NO:3), based on the antigenic core sequence of ovalbumin 323–339 (KMKMVHAAHAKMKM)”, the “inhibition of MLR” value in assay [2] and in assay [3] was “did not induce any significant effect” each time.
On to Hen egg-white lysozyme [HEL], for which the “inhibitory effect on the MLC” value in assay [4] is “no or only minimal inhibitory effect”. Moreover, the “long-term survival from lethal graft-versus-host disease” value in assay [5] (600 μg per injection) is “did not improve long-term survival”. Also, the “overall incidence of GVHD” value in assay [5] (day 30 after transplant) and in assay [5] (day 70 after transplant) was 100% each time. Further, in assay [5] (days after transplant, 600 μg per injection), the “median onset of GVHD” value is 22 days.
